16 compounds from US9133148B2, “Carbamate compounds and of making and using same” (Abide Therapeutics, Inc., priority 2012, dated 2015) can be followed below.

The target of test [1] is T1, ABHD6 (Mus musculus (Mouse), UniProt Q8R2Y0). In words: In vitro competitive activity-based protein profiling (FP-Rh), mouse ABHD6. The format is biochemical. The note with it: mouse brain membrane proteome. As to the method: (§1) In Vitro Competitive Activity-Based Protein Profiling.
(§2) Proteomes (mouse brain membrane fraction or cell lysates) ([…], 1.0 mg/mL total protein concentration) were preincubated with varying concentrations of inhibitors at 37° C. After 30 min, FP-Rh (1.0 μL, 50 μM in DMSO) was added and the mixture was incubated for another 30 min at 37° C. Reactions were quenched with SDS loading buffer (50 μL—4×) and run on SDS-PAGE.

The target in test [2] is T2, FAAH (Mus musculus (Mouse), UniProt O08914). In words: In vitro competitive activity-based protein profiling (FP-Rh), mouse FAAH. The following applies: mouse brain membrane proteome. The format is biochemical. Here is the method:
as §1, §2

Test [3] addresses Mouse brain MAGL (Mus musculus (Mouse), UniProt O35678). In words: Mouse brain proteomes from inhibitor treated mice (oral gavage, ABPP of brain MAGL). It counts as in vivo. The note with it: for Mouse brain MAGL (% inhibition at 5 mg/kg, p.o.) / Mouse brain MAGL (% inhibition at 20 mg/kg, p.o.): 4 h following administration; for ED50: po. As to the method: Preparation of Mouse Brain Proteomes from Inhibitor Treated Mice.
Inhibitors were administered to wild-type C57Bl/6J by oral gavage in a vehicle of polyethylene glycol.

Test [4] concerns the target T3, MAGL (Mus musculus (Mouse), UniProt O35678). In words: In vitro competitive activity-based protein profiling (FP-Rh), mouse MAGL. It counts as biochemical. The following applies: mouse brain membrane proteome. As to the method: as §1, §2
Test [5] has as its target Human MAGL (Homo sapiens (Human), UniProt Q99685). Nature of the test: Competitive ABPP with recombinant human MAGL expressed in HEK293T cells. It counts as biochemical. The following applies: hMAGL in HEK293T cell lysates. As to the method: as §2
Recombinant Expression of Human MAGL in HEK293T Cells.
Cell lysates were diluted with mock proteomes for use in competitive ABPP experiments.

The target in test [6] is T3, MAGL. Nature of the test: Competitive ABPP, % inhibition at 1 uM, MAGL. The format is biochemical. Here is the method:
as §1, §2

The target in test [7] is T2, FAAH. In words: Competitive ABPP, % inhibition at 1 uM, FAAH. It counts as biochemical. The method in brief:
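Mouse brain membrane proteome or cell lysate (1.0 mg/mL protein) preincubated 30 min at 37° C with inhibitor, then labelled 30 min at 37° C with FP-Rh probe. Resolved by SDS-PAGE; activity from in-gel fluorescence intensity of FAAH band.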

Test [8] concerns the target T1, ABHD6. In words: Competitive ABPP, % inhibition at 1 uM, ABHD6. It counts as biochemical. As to the method: as §1, §2

Structures are written as SMILES.

T3 sequence (O35678 whole entry): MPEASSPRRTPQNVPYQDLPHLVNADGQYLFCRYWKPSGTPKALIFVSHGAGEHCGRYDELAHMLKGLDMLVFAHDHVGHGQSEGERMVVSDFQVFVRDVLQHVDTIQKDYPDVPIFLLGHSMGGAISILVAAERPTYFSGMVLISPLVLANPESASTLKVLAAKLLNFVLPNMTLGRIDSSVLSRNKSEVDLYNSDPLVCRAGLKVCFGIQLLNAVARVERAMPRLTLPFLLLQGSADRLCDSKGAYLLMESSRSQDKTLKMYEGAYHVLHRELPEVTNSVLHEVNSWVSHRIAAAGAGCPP
Mouse brain MAGL, sequence (O35678 whole entry): as above
T1 sequence (Q8R2Y0 whole entry): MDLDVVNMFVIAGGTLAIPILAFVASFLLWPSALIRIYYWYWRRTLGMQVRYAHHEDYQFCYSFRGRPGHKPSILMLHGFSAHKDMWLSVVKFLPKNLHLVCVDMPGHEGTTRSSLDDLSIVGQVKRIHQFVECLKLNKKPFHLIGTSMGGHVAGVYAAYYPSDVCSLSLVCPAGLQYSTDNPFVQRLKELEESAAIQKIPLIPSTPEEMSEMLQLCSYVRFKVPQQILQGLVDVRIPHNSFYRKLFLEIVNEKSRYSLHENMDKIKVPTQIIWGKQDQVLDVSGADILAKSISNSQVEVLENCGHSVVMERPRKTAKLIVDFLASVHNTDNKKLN
T2 sequence (O08914 whole entry): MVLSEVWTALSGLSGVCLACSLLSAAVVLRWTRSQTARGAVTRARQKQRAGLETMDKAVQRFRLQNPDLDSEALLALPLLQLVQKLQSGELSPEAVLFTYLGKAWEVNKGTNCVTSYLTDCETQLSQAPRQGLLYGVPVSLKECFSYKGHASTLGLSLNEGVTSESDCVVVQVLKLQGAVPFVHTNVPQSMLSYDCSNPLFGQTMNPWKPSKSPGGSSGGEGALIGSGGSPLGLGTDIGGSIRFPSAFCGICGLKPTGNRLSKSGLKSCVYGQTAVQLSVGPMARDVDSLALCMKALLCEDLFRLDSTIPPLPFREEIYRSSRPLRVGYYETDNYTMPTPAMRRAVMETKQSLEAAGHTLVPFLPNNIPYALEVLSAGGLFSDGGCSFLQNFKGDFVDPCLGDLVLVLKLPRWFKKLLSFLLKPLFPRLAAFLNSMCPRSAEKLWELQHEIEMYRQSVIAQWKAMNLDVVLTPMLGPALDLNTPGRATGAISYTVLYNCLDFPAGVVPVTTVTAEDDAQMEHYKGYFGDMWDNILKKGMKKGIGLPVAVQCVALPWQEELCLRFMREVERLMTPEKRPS
Human MAGL, sequence (Q99685 whole entry): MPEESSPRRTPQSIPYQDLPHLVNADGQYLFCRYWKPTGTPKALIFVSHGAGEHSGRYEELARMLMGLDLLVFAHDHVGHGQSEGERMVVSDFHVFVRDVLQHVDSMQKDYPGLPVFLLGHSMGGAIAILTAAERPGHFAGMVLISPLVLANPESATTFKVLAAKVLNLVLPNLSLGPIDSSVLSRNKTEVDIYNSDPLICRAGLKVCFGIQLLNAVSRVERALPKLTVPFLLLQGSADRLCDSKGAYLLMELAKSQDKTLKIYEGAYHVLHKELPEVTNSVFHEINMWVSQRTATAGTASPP

As a reminder, the IC50 is the point on the concentration scale where inhibition reaches its midpoint. Take `CC(C)n1cc(CN2CCN(C(=O)OC(C(F)(F)F)C(F)(F)F)CC2)c(-c2ccccc2Cl)n1` [Example 10i, 1,1,1,3,3,3-hexafluoropropan-2-yl 4-[[3-(2-chlorophenyl)-1-(propan-2-yl)-1H-pyrazol-4-yl]methyl]piperazine-1-carboxylate]: the IC50 in test [1] (competitive ABPP (Table 7)) is 100 to 1000 nM; in test [2] (competitive ABPP (Table 7)) it was over 10000 nM; in test [4] (competitive ABPP (Table 7)), under 100 nM. In test [3], the “Mouse brain MAGL (% inhibition at 5 mg/kg, p.o.)” value came out at 75%.
Turning to `CN(Cc1cccc(-c2cccnc2)c1)C(=O)OC(C(F)(F)F)C(F)(F)F` [Example 3g, 1,1,1,3,3,3-hexafluoropropan-2-yl methyl(3-(pyridin-3-yl)benzyl)-carbamate], the concentration for half-maximal inhibition (IC50) in test [1] (competitive ABPP) was under 100 nM; in test [2] (competitive ABPP), over 10000 nM; in test [5], under 0.1 µM; in test [4] (competitive ABPP), 100 to 1000 nM. Further, in test [3], the “Mouse brain MAGL (% inhibition at 20 mg/kg, p.o.)” value worked out at 93%.
On to `O=C(OC(C(F)(F)F)C(F)(F)F)N1CCN(Cc2cccc(Cl)c2N2CCCC2)CC1` [Example 9ar, 1,1,1,3,3,3-hexafluoropropan-2-yl 4-(3-chloro-2-(pyrrolidin-1-yl)benzyl)piperazine-1-carboxylate], for which the half-maximal inhibitory concentration (IC50) in test [1] (competitive ABPP (Table 7)) is over 1000 nM; in test [2] (competitive ABPP (Table 7)), over 10000 nM; in test [4] (competitive ABPP (Table 7)), under 100 nM. Also, the “Mouse brain MAGL (% inhibition at 5 mg/kg, p.o.)” value in test [3] came out at 75%.
For `CS(=O)(=O)N1CCN(c2cc(Cl)ccc2CN2CCN(C(=O)OC(C(F)(F)F)C(F)(F)F)CC2)CC1` [Example 9bj, 1,1,1,3,3,3-hexafluoropropan-2-yl 4-(4-chloro-2-(4-(methylsulfonyl)piperazin-1-yl)benzyl)piperazine-1-carboxylate], in that order: 100 to 1000 nM, over 10000 nM, under 100 nM and 75%.
Usually ED50 stands for the dose that gives a 50% effect, or the effect in half of the subjects. As for `CC(=O)NC1CCN(c2cc(Cl)ccc2CN2CCN(C(=O)OC(C(F)(F)F)C(F)(F)F)CC2)C1` (centres unmarked) [Example 9af, 1,1,1,3,3,3-hexafluoropropan-2-yl 4-(2-(3-acetamidopyrrolidin-1-yl)-4-chlorobenzyl)piperazine-1-carboxylate], the IC50 was over 1000 nM in test [1] (competitive ABPP (Table 7)), over 10000 nM in test [2] (competitive ABPP (Table 7)) and 100 to 1000 nM in test [4] (competitive ABPP (Table 7)). This compound also had a median effective dose (ED50) in test [3] of under 4 mg/kg.
Take `O=C(OC(C(F)(F)F)C(F)(F)F)N1CCN(Cc2ccc(-c3ccccc3)cc2C(=O)N2CCCC2)CC1` [Example 11y, 1,1,1,3,3,3-hexafluoropropan-2-yl 4-([4-phenyl-2-[(pyrrolidin-1-yl)carbonyl]phenyl]methyl)piperazine-1-carboxylate]: the concentration for half-maximal inhibition (IC50) was over 1000 nM in test [1] (competitive ABPP (Table 7)), over 10000 nM in test [2] (competitive ABPP (Table 7)) and under 100 nM in test [4] (competitive ABPP (Table 7)). Besides, the “Mouse brain MAGL (% inhibition at 5 mg/kg, p.o.)” value in test [3] came to 75%.
Regarding `O=C(OC(C(F)(F)F)C(F)(F)F)N1CCN(Cc2ccc(Cl)cc2N2CCC2)CC1` [Example 9ay, 1,1,1,3,3,3-hexafluoropropan-2-yl 4-(2-(azetidin-1-yl)-4-chlorobenzyl)piperazine-1-carboxylate], the half-inhibitory concentration (IC50) was over 1000 nM in test [1] (competitive ABPP (Table 7)), over 10000 nM in test [2] (competitive ABPP (Table 7)) and under 100 nM in test [4] (competitive ABPP (Table 7)). The “Mouse brain MAGL (% inhibition at 5 mg/kg, p.o.)” value in test [3] is given as 50%.
As to `O=C(OC(C(F)(F)F)C(F)(F)F)N1CCN(Cc2ccc(Cl)cc2N2Cc3cccnc3C2)CC1` [Example 9bh, 1,1,1,3,3,3-hexafluoropropan-2-yl 4-(4-chloro-2-(5H-pyrrolo[3,4-b]pyridin-6(7H)-yl)benzyl)piperazine-1-carboxylate], the results for the IC50 in test [1] (competitive ABPP (Table 7)), in test [2] (competitive ABPP (Table 7)) and in test [4] (competitive ABPP (Table 7)) were 100 to 1000 nM, over 10000 nM and under 100 nM, respectively. The “Mouse brain MAGL (% inhibition at 5 mg/kg, p.o.)” value in test [3] is given as 25%.
As for `O=C(OC(C(F)(F)F)C(F)(F)F)N1CCN(Cc2ccc(Cl)cc2N2CCC3(CCNC3=O)CC2)CC1` [Example 9ax, 1,1,1,3,3,3-hexafluoropropan-2-yl 4-(4-chloro-2-(1-oxo-2,8-diazaspiro[4.5]decan-8-yl)benzyl)piperazine-1-carboxylate], the half-inhibitory concentration (IC50) in test [1] (competitive ABPP (Table 7)) is over 1000 nM; in test [2] (competitive ABPP (Table 7)), over 10000 nM; in test [4] (competitive ABPP (Table 7)), under 100 nM. Also, the “Mouse brain MAGL (% inhibition at 5 mg/kg, p.o.)” value in test [3] stood at 75%.
Consider `O=C(OC(C(F)(F)F)C(F)(F)F)N1CCN(Cc2ccc(Cl)cc2N2CCC3(CCOCC3)C2)CC1` [Example 9av, 1,1,1,3,3,3-hexafluoropropan-2-yl 4-(4-chloro-2-(8-oxa-2-azaspiro[4.5]decan-2-yl)benzyl)piperazine-1-carboxylate], for which the concentration for half-maximal inhibition (IC50) in test [1] (competitive ABPP (Table 7)) is over 1000 nM; in test [2] (competitive ABPP (Table 7)) it was over 10000 nM; in test [4] (competitive ABPP (Table 7)), under 100 nM. The “Mouse brain MAGL (% inhibition at 5 mg/kg, p.o.)” value in test [3] came out at 75%.
`CNC(=O)C(OC(=O)N1CCN(C(c2ccc(Cl)cc2)c2ccc(Cl)cc2)CC1)C(F)(F)F` (centres unmarked) [Example 6j, 1,1,1-trifluoro-3-(methylamino)-3-oxopropan-2-yl 4-(bis(4-chlorophenyl)methyl)piperazine-1-carboxylate]: the IC50 in test [1] (competitive ABPP) was under 100 nM; in test [2] (competitive ABPP), over 10000 nM; in test [4] (competitive ABPP), 100 to 1000 nM. Moreover, the “Mouse brain MAGL (% inhibition at 20 mg/kg, p.o.)” value in test [3] is over 95%.
For `O=C(OC(C(F)(F)F)C(F)(F)F)N1CCN(Cc2cccc(F)c2N2CCOCC2)CC1` [Example 9d, 1,1,1,3,3,3-hexafluoropropan-2-yl 4-[[3-fluoro-2-(morpholin-4-yl)phenyl]methyl]piperazine-1-carboxylate], the IC50 in test [1] (competitive ABPP (Table 7)) is over 1000 nM; in test [2] (competitive ABPP (Table 7)), over 10000 nM; in test [4] (competitive ABPP (Table 7)), under 100 nM. Besides, the median effective dose (ED50) in test [3] is under 4 mg/kg.
As for `O=C(OC(C(F)(F)F)C(F)(F)F)N1CCN(Cc2ccc(Cl)cc2N2CCN3CCC[C@@H]3C2)CC1` [Example 9bi, (R)-1,1,1,3,3,3-hexafluoropropan-2-yl 4-(4-chloro-2-(hexahydropyrrolo[1,2-a]pyrazin-2(1H)-yl)benzyl)piperazine-1-carboxylate], the values for the IC50 in test [1] (competitive ABPP (Table 7)), in test [2] (competitive ABPP (Table 7)) and in test [4] (competitive ABPP (Table 7)) were over 1000 nM, over 10000 nM and under 100 nM, respectively. For the same compound, in test [3], the “Mouse brain MAGL (% inhibition at 5 mg/kg, p.o.)” value was found to be 50%.
Turning to `COC(c1ccc2c(c1)OCO2)(c1ccc2c(c1)OCO2)C1CCN(C(=O)OC(C(F)(F)F)C(F)(F)F)CC1` [Example 1b, 1,1,1,3,3,3-hexafluoropropan-2-yl 4-(bis(benzo[d][1,3]dioxol-5-yl)(methoxy)methyl)piperidine-1-carboxylate], the figures for the half-maximal inhibitory concentration (IC50) in test [1] (competitive ABPP), in test [2] (competitive ABPP) and in test [4] (competitive ABPP) were 100 to 1000 nM, over 10000 nM and under 100 nM, respectively. Further, in test [3], the “Mouse brain MAGL (% inhibition at 20 mg/kg, p.o.)” value is reported as 13%.
Broadly, the inhibition is the change of the read-out against control, counted positive when it falls. Low readings indicate a weak effect, high ones a strong effect. As for `O=C(OC(C(F)(F)F)C(F)(F)F)N1CCN(Cc2cc(Cl)ccc2N2CCCC2)CC1` [Example 9n, 1,1,1,3,3,3-hexafluoropropan-2-yl 4-[[5-chloro-2-(pyrrolidin-1-yl)phenyl]methyl]piperazine-1-carboxylate], the inhibition at 1 µM in test [6] was 25 to 75%; in test [7], under 25%; in test [8], 25 to 75%. Further, the 50% inhibitory concentration (IC50) in test [1] (competitive ABPP (Table 7)) was over 1000 nM; in test [2] (competitive ABPP (Table 7)), over 10000 nM; in test [4] (competitive ABPP (Table 7)), under 100 nM. Further, in test [3], the “Mouse brain MAGL (% inhibition at 5 mg/kg, p.o.)” value was determined as 75%.
Regarding `O=C(OC(C(F)(F)F)C(F)(F)F)N1CCN(C(c2ccc3c(c2)CCO3)c2ccc3c(c2)CCO3)CC1` [Example 2e, 1,1,1,3,3,3-hexafluoropropan-2-yl 4-(bis(2,3-dihydrobenzofuran-5-yl)methyl)piperazine-1-carboxylate], the IC50 in test [1] (competitive ABPP) is 100 to 1000 nM; in test [2] (competitive ABPP), over 10000 nM; in test [5], under 0.1 µM; in test [4] (competitive ABPP) it was under 100 nM.
